Values of other authors in patent US20090298708A1, “2'-DEOXY-2'-FLUORO-BETA-D-ARABINONUCLEOSIDE 5'-TRIPHOSPHATES AND THEIR USE IN ENZYMATIC NUCLEIC ACID SYNTHESIS” (priority 2006, published 2009).

Target: T1, DNA pol-γ (Homo sapiens, UniProt P54098)
T1 sequence (P54098 1-1239): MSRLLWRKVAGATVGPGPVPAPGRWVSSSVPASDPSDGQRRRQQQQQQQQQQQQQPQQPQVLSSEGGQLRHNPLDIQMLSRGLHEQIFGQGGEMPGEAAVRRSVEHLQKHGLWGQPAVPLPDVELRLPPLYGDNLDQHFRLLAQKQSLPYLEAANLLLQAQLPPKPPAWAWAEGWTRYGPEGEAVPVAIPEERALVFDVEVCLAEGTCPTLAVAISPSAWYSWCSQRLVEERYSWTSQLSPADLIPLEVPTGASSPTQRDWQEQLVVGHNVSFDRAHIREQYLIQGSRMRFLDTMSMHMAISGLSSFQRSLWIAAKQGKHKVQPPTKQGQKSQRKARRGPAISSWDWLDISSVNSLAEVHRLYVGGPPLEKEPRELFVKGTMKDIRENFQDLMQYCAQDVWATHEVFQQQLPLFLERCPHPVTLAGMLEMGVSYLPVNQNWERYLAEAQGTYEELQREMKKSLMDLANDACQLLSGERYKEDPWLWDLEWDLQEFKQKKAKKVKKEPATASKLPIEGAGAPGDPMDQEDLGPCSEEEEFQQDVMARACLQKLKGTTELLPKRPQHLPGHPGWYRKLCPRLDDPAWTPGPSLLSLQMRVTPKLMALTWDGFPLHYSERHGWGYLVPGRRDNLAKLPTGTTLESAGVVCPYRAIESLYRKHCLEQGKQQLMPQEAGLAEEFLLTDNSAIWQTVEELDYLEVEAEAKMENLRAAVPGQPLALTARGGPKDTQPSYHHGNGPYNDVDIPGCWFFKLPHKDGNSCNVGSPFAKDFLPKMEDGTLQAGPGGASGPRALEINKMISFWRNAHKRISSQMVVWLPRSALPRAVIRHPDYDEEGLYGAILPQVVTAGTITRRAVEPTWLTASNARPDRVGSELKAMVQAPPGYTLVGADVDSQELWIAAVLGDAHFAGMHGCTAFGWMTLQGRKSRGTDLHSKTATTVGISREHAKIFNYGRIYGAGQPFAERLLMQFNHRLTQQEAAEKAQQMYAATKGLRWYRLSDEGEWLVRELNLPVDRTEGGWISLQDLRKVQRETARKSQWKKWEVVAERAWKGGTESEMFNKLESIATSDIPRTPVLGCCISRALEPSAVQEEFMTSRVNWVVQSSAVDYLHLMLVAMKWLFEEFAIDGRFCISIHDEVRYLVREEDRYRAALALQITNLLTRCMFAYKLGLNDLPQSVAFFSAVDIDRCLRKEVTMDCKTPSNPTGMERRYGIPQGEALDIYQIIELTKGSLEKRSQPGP
Conditions: Lewis W. et al. (1994) Biochemistry, 33, 14620-14624; read-out: inhibition constant (Ki) with DNA pol-γ; cited from earlier work

O=c1[nH]c(=O)n(C2OC(COP(=O)(O)OP(=O)(O)OP(=O)(O)O)C(O)C2F)cc1I (stereo not shown) [FIAU 5′-TP]
Ki: 40 nM
